Read-outs that look alike come from different tables or passages of the source.
What was measured:
THP-1 cells = assay: Evaluation of cytotoxicity on THP-1 cells (MTS); assay type: cell-based, human; conditions: for Cytotoxicity on THP‐1 (100, 20, 4 µM) (%): 72 h, PMA-differentiated THP-1
Description: (§1) Finally, eighteen compounds were first screened for efficacy against L. infantum MHOM/TN/80/IPT1 promastigotes at a single dose of 20 µM for 72 hours.
(§2) L. infantum MHOM/TN/80/IPT1 (WHO international reference strain) was purchased from ATCC (ATCC® 50134™) and was cultured in Evans's Modified Tobie Medium (EMTM) at 26–28 °C. To test the compounds, parasites were resuspended in RPMI-PY medium as described previously. The human monocytic cell line THP-1 (ECACC 88081201) was cultured in RPMI-1640 medium supplemented with 10% heat-inactivated Fetal Bovine Serum (FBS), 100 μg/ml streptomycin, […] and maintained in a humidified incubator at 37 °C and 5% CO2. All the cell culture reagents were purchased from Sigma-Aldrich (St. Louis, MO, USA).
(§3) The cytotoxicity of the compounds was assessed on THP-1 cells seeded at a density of 5 × 10^5 cells per mL, 100μL/well in a 96-well plate and treated for 72 h with 20 ng/mL phorbol myristic acid (PMA) to induce differentiation into macrophages like cells. After cell adhesion to the plate, each molecule was tested at 4, 20 and 100 μM for 72 h at 37 °C.
(§4) Three selected compounds were further evaluated at different concentration, obtained from scalar dilutions 1:2 (from 100 µM to 3.12 μM) for 72 h at 37°C. The negative control (untreated THP-1 cells) and the positive control (miltefosine) were included in each experiment. Each condition was carried out in duplicate. To evaluate the compounds cytotoxicity, the CellTiter 96H Aqueous Non-Radioactive Cell Proliferation Assay (Promega), was used as described before. […]

[1] = test system: L. infantum MHOM/TN/80/IPT1 promastigotes; assay: L. infantum promastigotes viability assay (MTS); assay type: cell-based, Leishmania infantum; conditions: Leishmania infantum, 72 h; for inhibition at 20 µM: single dose 20 µM
Description: as §1, §2
Late log/stationary phase L. infantum promastigotes were resuspended in RPMI-PY medium at a density of 2.5×10^6 parasites/mL in 96-well plates (100μL/well). The anti-parasitic activity of the eighteen compounds of the library was initially investigated at a single dose of 20 μM for 72 h at 26 °C. […] Not treated parasites were included as negative control. As positive control, the anti-leishmanial drug miltefosine (Sigma-Aldrich, Milan, Italy) was used. Each condition was carried out in duplicate. To evaluate the promastigotes viability, the CellTiter 96H Aqueous Non-Radioactive Cell Proliferation Assay (Promega), based on the ability of viable cells to convert a soluble tetrazolium salt [3-(4.5-dimethylthiazol-2-yl)-5-(3-carboxymethoxy-phenyl)-2-(4-sulfophenyl)-2H-tetrazolium. MTS] to a formazan product, was performed. To this end, 20 μL of MTS/PMS (phenazinemethosulfate, Sigma-Aldrich) was added to 100 μL of culture medium and incubated at 26°C until formazan production. Absorbance was recorded on a Microplate Reader (Infinite® F50 Plus, Tecan) at 492 nm. The IC50 values were calculated using nonlinear regression curves in GraphPad Prism 8.0 (GraphPad Software,Inc., San Diego, CA). The equation used for data fitting was Y= 100/(1 + 10∧((Log IC50 −X)*HillSlope)) (hillslope not constrained), where X is the log of concentration and Y is the normalized response. […]

[2] = Evaluation of cytotoxicity on THP-1 cells (MTS); assay type: cell-based, human; conditions: human, 72 h
Description: as §1, §2, §3, §4

[3] = roughly determined from 100, 20 and 4 µM, read-out: CC50 interval on THP-1 cells

Q: Which “Cytotoxicity on THP‐1 (100, 20, 4 µM) (%)” value (“Cytotoxicity … (%)” for short) (THP-1 cells; 4 µM) does the source give for `NCC(c1c[nH]c2cc(-c3cccc4ccccc34)ccc12)c1c[nH]c2cc(-c3cccc4ccccc34)ccc12` [3an, 2,2-bis(6-(naphthalen-1-yl)-1H-indol-3-yl)ethan-1-amine] here?
A: −15%

Q: What about the “Cytotoxicity … (%)” value (THP-1 cells; 20 µM) of the same molecule?
A: 95%

Q: And the “Cytotoxicity … (%)” value (THP-1 cells; 100 µM)?
A: 79%

Q: And the inhibition at 20 µM [1]?
A: 97.8%

Q: For `COc1ccc(-c2ccc3c(C(CN)c4c[nH]c5cc(-c6ccc(OC)cc6)ccc45)c[nH]c3c2)cc1` [3ad, 2,2-bis(6-(4-methoxyphenyl)-1H-indol-3-yl)ethan-1-amine], which “Cytotoxicity … (%)” value (THP-1 cells; 4 µM) is on record?
A: −12%

Q: What about the “Cytotoxicity … (%)” value (THP-1 cells; 20 µM) of the same molecule?
A: 96%

Q: And the “Cytotoxicity … (%)” value (THP-1 cells; 100 µM)?
A: 86%

Q: And the inhibition at 20 µM [1]?
A: 95.1%

Q: With `CC(C)(C)OC(=O)n1cccc1-c1ccc2c(C(CN)c3c[nH]c4cc(-c5cccn5C(=O)OC(C)(C)C)ccc34)c[nH]c2c1` [3ap, di-tert-butyl 2,2'-((2-aminoethane-1,1-diyl)bis(1H-indole-3,6-diyl))bis(1H-pyrrole-1-carboxylate)] as the molecule, how does the “Cytotoxicity … (%)” value (THP-1 cells; 4 µM) read?
A: 22%

Q: What about the “Cytotoxicity … (%)” value (THP-1 cells; 20 µM) of the same molecule?
A: 97%

Q: What about the “Cytotoxicity … (%)” value (THP-1 cells; 100 µM) of the same molecule?
A: 85%

Q: And the inhibition at 20 µM [1]?
A: 92.6%

Q: With `CCCCCCCCCCCCCCCCOP(=O)([O-])OCC[N+](C)(C)C` [Milt, miltefosine, reference compound] as the molecule, how does the “Cytotoxicity … (%)” value (THP-1 cells; 4 µM) read?
A: −35%

Q: And the “Cytotoxicity … (%)” value (THP-1 cells; 20 µM)?
A: 6%

Q: What about the “Cytotoxicity … (%)” value (THP-1 cells; 100 µM) of the same molecule?
A: 99%

Q: And the “SI (Selectivity index = CC50/IC50)” value (THP-1 cells; CC50 THP-1 (72 h) / IC50 L. infantum promastigotes (72 h))?
A: 9.8

Q: What about the CC50 at 72 h ([2]; scalar dilutions 1:2 from 100 to 3.12 µM, mean (95% CI), read-out: THP‐1 CC50 (µM) (95% CI)) of the same molecule?
A: 36.6 µM

Q: What about the IC50 ([1]; scalar dilutions 2:3 from 20 to 1.17 µM, mean (95% CI)) of the same molecule?
A: 3.7 µM

Q: And the inhibition at 20 µM [1]?
A: 98.5%

Q: Which “Cytotoxicity … (%)” value (THP-1 cells; 4 µM) does the source give for `NCC(c1c[nH]c2cc(-c3cccc(Cl)c3)ccc12)c1c[nH]c2cc(-c3cccc(Cl)c3)ccc12` [3ag, 2,2-bis(6-(3-chlorophenyl)-1H-indol-3-yl)ethan-1-amine] here?
A: −7%

Q: And the “Cytotoxicity … (%)” value (THP-1 cells; 20 µM)?
A: 97%

Q: What about the “Cytotoxicity … (%)” value (THP-1 cells; 100 µM) of the same molecule?
A: 84%

Q: And the inhibition at 20 µM [1]?
A: 93.6%

Q: Which results are given for `CC(C)Cc1ccc(-c2ccc3c(C(CN)c4c[nH]c5cc(-c6ccc(CC(C)C)cc6)ccc45)c[nH]c3c2)cc1` [3ac, 2,2-bis(6-(4-isobutylphenyl)-1H-indol-3-yl)ethan-1-amine]?
A: Cytotoxicity on THP‐1 (100, 20, 4 µM) (%) (THP-1 cells; 4 µM): −17%; Cytotoxicity on THP‐1 (100, 20, 4 µM) (%) (THP-1 cells; 20 µM): 1%; Cytotoxicity on THP‐1 (100, 20, 4 µM) (%) (THP-1 cells; 100 µM): 88%; CC50 at 72 h [2, 3]: 20 to 100 µM; inhibition at 20 µM [1]: ≤ 51.4%

Q: For `NCC(c1c[nH]c2cc(-c3cccc(OCc4ccccc4)c3)ccc12)c1c[nH]c2cc(-c3cccc(OCc4ccccc4)c3)ccc12` [3ai, 2,2-bis(6-(3-(benzyloxy)phenyl)-1H-indol-3-yl)ethan-1-amine], which “Cytotoxicity … (%)” value (THP-1 cells; 4 µM) is on record?
A: 1%

Q: And the “Cytotoxicity … (%)” value (THP-1 cells; 20 µM)?
A: 90%

Q: What about the “Cytotoxicity … (%)” value (THP-1 cells; 100 µM) of the same molecule?
A: 72%

Q: With `NCC(c1c[nH]c2cc(-c3ccc(F)cc3)ccc12)c1c[nH]c2cc(-c3ccc(F)cc3)ccc12` [3ab, 2,2-bis(6-(4-fluorophenyl)-1H-indol-3-yl)ethan-1-amine] as the molecule, how does the “Cytotoxicity … (%)” value (THP-1 cells; 4 µM) read?
A: −33%

Q: And the “Cytotoxicity … (%)” value (THP-1 cells; 20 µM)?
A: 97%

Q: What about the “Cytotoxicity … (%)” value (THP-1 cells; 100 µM) of the same molecule?
A: 85%

Q: And the inhibition at 20 µM [1]?
A: 97.1%

Q: Which “Cytotoxicity … (%)” value (THP-1 cells; 4 µM) does the source give for `COc1cccc(OC)c1-c1ccc2c(C(CN)c3c[nH]c4cc(-c5c(OC)cccc5OC)ccc34)c[nH]c2c1` [3al, 2,2-bis(6-(2,6-dimethoxyphenyl)-1H-indol-3-yl)ethan-1-amine] here?
A: −5%

Q: What about the “Cytotoxicity … (%)” value (THP-1 cells; 20 µM) of the same molecule?
A: 47%

Q: And the “Cytotoxicity … (%)” value (THP-1 cells; 100 µM)?
A: 84%

Q: What about the CC50 at 72 h [2, 3] of the same molecule?
A: 20 to 100 µM

Q: What about the inhibition at 20 µM [1] of the same molecule?
A: ≤ 51.4%

Q: For `NCC(c1c[nH]c2cc(/C=C/c3ccc(Cl)cc3)ccc12)c1c[nH]c2cc(/C=C/c3ccc(Cl)cc3)ccc12` [3ar, 2,2-bis(6-((E)-4-chlorostyryl)-1H-indol-3-yl)ethan-1-amine], which “Cytotoxicity … (%)” value (THP-1 cells; 4 µM) is on record?
A: −32%

Q: And the “Cytotoxicity … (%)” value (THP-1 cells; 20 µM)?
A: 95%

Q: And the “Cytotoxicity … (%)” value (THP-1 cells; 100 µM)?
A: 66%

Q: What about the inhibition at 20 µM [1] of the same molecule?
A: 95.1%

Q: What does the source list for `NCC(c1c[nH]c2ccc(-c3ccccc3)cc12)c1c[nH]c2ccc(-c3ccccc3)cc12` [3ba, 2,2-bis(5-phenyl-1H-indol-3-yl)ethan-1-amine]?
A: Cytotoxicity on THP‐1 (100, 20, 4 µM) (%) (THP-1 cells; 4 µM): −22%; Cytotoxicity on THP‐1 (100, 20, 4 µM) (%) (THP-1 cells; 20 µM): 98%; Cytotoxicity on THP‐1 (100, 20, 4 µM) (%) (THP-1 cells; 100 µM): 91%; inhibition at 20 µM [1]: 96.8%

Q: For `COc1cccc(-c2ccc3c(C(CN)c4c[nH]c5cc(-c6cccc(OC)c6)ccc45)c[nH]c3c2)c1` [3aj, 2,2-bis(6-(3-methoxyphenyl)-1H-indol-3-yl)ethan-1-amine], which “Cytotoxicity … (%)” value (THP-1 cells; 4 µM) is on record?
A: 2%

Q: And the “Cytotoxicity … (%)” value (THP-1 cells; 20 µM)?
A: 97%

Q: What about the “Cytotoxicity … (%)” value (THP-1 cells; 100 µM) of the same molecule?
A: 85%

Q: What about the inhibition at 20 µM [1] of the same molecule?
A: 96.5%

Q: What does the source list for `NCC(c1c[nH]c2cc(-c3ccc4ccccc4c3)ccc12)c1c[nH]c2cc(-c3ccc4ccccc4c3)ccc12` [3ao, 2,2-bis(6-(naphthalen-2-yl)-1H-indol-3-yl)ethan-1-amine]?
A: Cytotoxicity on THP‐1 (100, 20, 4 µM) (%) (THP-1 cells; 4 µM): −13%; Cytotoxicity on THP‐1 (100, 20, 4 µM) (%) (THP-1 cells; 20 µM): 94%; Cytotoxicity on THP‐1 (100, 20, 4 µM) (%) (THP-1 cells; 100 µM): 76%; inhibition at 20 µM [1]: 95.1%

Q: Which results are given for `COc1ccccc1-c1ccc2c(C(CN)c3c[nH]c4cc(-c5ccccc5OC)ccc34)c[nH]c2c1` [3ak, 2,2-bis(6-(2-methoxyphenyl)-1H-indol-3-yl)ethan-1-amine]?
A: Cytotoxicity on THP‐1 (100, 20, 4 µM) (%) (THP-1 cells; 4 µM): −4%; Cytotoxicity on THP‐1 (100, 20, 4 µM) (%) (THP-1 cells; 20 µM): 97%; Cytotoxicity on THP‐1 (100, 20, 4 µM) (%) (THP-1 cells; 100 µM): 86%; inhibition at 20 µM [1]: 96.5%

Q: With `NCC(c1c[nH]c2cc(-c3cccc(-c4ccccc4)c3)ccc12)c1c[nH]c2cc(-c3cccc(-c4ccccc4)c3)ccc12` [3ah, 2,2-bis(6-([1,1'-biphenyl]-3-yl)-1H-indol-3-yl)ethan-1-amine] as the molecule, how does the “Cytotoxicity … (%)” value (THP-1 cells; 4 µM) read?
A: −20%

Q: What about the “Cytotoxicity … (%)” value (THP-1 cells; 20 µM) of the same molecule?
A: 32%

Q: What about the “Cytotoxicity … (%)” value (THP-1 cells; 100 µM) of the same molecule?
A: 77%

Q: What about the CC50 at 72 h [2, 3] of the same molecule?
A: 20 to 100 µM

Q: With `NCC(c1c[nH]c2cc(-c3ccccc3)ccc12)c1c[nH]c2cc(-c3ccccc3)ccc12` [3aa, 2,2-bis(6-phenyl-1H-indol-3-yl)ethan-1-amine] as the molecule, how does the “Cytotoxicity … (%)” value (THP-1 cells; 4 µM) read?
A: −18%

Q: What about the “Cytotoxicity … (%)” value (THP-1 cells; 20 µM) of the same molecule?
A: 97%

Q: What about the “Cytotoxicity … (%)” value (THP-1 cells; 100 µM) of the same molecule?
A: 87%

Q: What about the inhibition at 20 µM [1] of the same molecule?
A: 96.2%

— article PMC12319374, “Efficient and Rapid Arylation of NH₂‐Unprotected Bromobisindole Ethanamines via Suzuki‐Miyaura Coupling: Generating New Leads Against Leishmania” (Chemistry (Weinheim an Der Bergstrasse, Germany), 2025)
